# Experimental data: patent US6342515B1, “Remedy for neurodegenerative diseases” (Dainippon Pharmaceutical Co., Ltd., priority 1997, dated 2002)
# Marks after values point to notes of the source that are not given here.
# Assays:
# C57 black male mice [1] = assay: Inhibitory effect on MPTP-induced dopaminergic neurodegeneration (striatal DA and DOPAC by HPLC); type: in vivo, mouse; conditions: for Inhibitory Rate (%) DA / Inhibitory Rate (%) DOPAC / DA (ng/g tissue) / DOPAC (ng/g tissue): striatum, 24 hours after last MPTP; for DA (ng/g tissue) / DOPAC (ng/g tissue): mean ± standard error; for inhibitory effect on the MPTP-induced reduction in the contents of dopamine and DOPAC in the striatum: po
# Description: (§1) In each experiment, the contents of monoamine neurotransmitters and metabolites thereof in the striatum were measured by high performance liquid chromatography (HPLC) method. HPLC was carried out using a system consisting of a pump (L-6000, manufactured by Hitachi, Ltd., Japan), an autoinjector, a column (Cosmosil 5C18-A, manufactured by Nacalai Tesque, Inc., Japan; 4.6Ø×250 mm), and an electrochemical detector (ECD-100, manufactured by Eicom Corporation, Japan) under the following conditions.
# In addition, the statistical analysis was carried out by Dunnett's multiple comparison test.
# (§2) C57 black male mice (11-week-old) were used in the experiment. MPTP hydrochloride was dissolved in a physiological saline solution in a concentration of 3 mg/ml, and the resulting solution was intraperitoneally injected to the mice in a volume of 0.1 ml per 10 g of body weight, i.e., at a dose of 30 mg/kg, once a day for 8 days repetitively. […]
# (§3) The striatum excised was homogenized with a 50-fold volume of 0.1 N formic acid:acetone (15:85) containing an internal standard substance (5-hydroxytriptophol; 20 ng/ml), and the mixture was centrifuged under cooling. A fixed amount of the supernatant was collected and evaporated to dryness under stream of nitrogen gas. Then, the resultant was dissolved in a 0.01 N acetic acid and centrifuged, and then the contents of various monoamine neurotransmitters and metabolites thereof in the supernatant were measured by HPLC being equipped with an electrochemical detector.
# MPTP hydrochloride was intraperitoneally administered to C57 black male mice (11-week-old) at a dose of 30 mg/kg once a day for 8 days repetitively in the same manner as in Experiment 1. The test drugs, i.e., antiepileptic agents, were suspended in a 0.5% aqueous tragacanth solution, and the resultant was orally administered to the mice in a volume of 0.1 ml per 10 g of body weight 30 minutes prior to the MPTP administration for 8 days. […] The contents of dopamine and a metabolite thereof in the striatum were measured in the same manner as in Experiment 1. […] The dosages for each administration of various antiepileptic agents are shown below. […] Forsch. (Drug Res.), 30, 477 (1980) for other antiepileptic agents were employed, respectively.
# The inhibitory rate was calculated from the values in the normal animal group, the vehicle-treated group and the test drug-treated group. The values in Table represent a mean value ± a standard error, and the marks * and ** mean that there is a significant difference from the value of the vehicle-treated group with p<0.05 and p<0.01, respectively.
# The perpendicular lines in the figures represent standard errors, and the marks * and ** mean that there is a significant difference from the value of the vehicle-treated group with p<0.05 and p<0.01, respectively.
# C57 black mice = conditions: MPTP hydrochloride 15 mg/kg s.c. once; cited from earlier work
# C57 black male mice [2] = assay: Preparation of animal model for Parkinson's disease: striatal monoamine neurotransmitters and metabolites after MPTP; type: in vivo, mouse; conditions: MPTP hydrochloride 30 mg/kg ip once a day for 8 days
# Description: as §1, §2, §3
# The changes in the contents of various neurotransmitters and metabolites thereof 24 hours after the last MPTP administration are shown in FIG. 1. The number of animals in each group is 8, and the perpendicular lines in the figures represent standard errors, and the mark ** means that there is a significant difference from the value of the control group (the group treated with a physiological saline solution) with p<0.01.
# [3] = 14-days group (14 days after the last MPTP administration), in words (FIG. 2)
# [4] = 24-hours group, in words (Table 1)
# [5] = 24 hours after last administration (FIG. 1)
# [6] = 100 mg/kg po for 8 days, 100 mg/kg
# [7] = 100 mg/kg po for 8 days, listed as zonisamide, 100 mg/kg
smiles,measurement,setting,value
"CC(=O)Nc1nnc(S(N)(=O)=O)s1 [AZA, Acetazolamide]",Inhibitory Rate (%) DA,C57 black male mice [1]; 100 mg/kg po for 8 days,−4.1%
same,Inhibitory Rate (%) DOPAC,C57 black male mice [1]; 100 mg/kg po for 8 days,1.2%
same,DA (ng/g tissue),C57 black male mice [1]; 100 mg/kg po for 8 days,1803 ± 428 ng/g tissue
same,DOPAC (ng/g tissue),C57 black male mice [1]; 100 mg/kg po for 8 days,138 ± 23 ng/g tissue
"NC(=O)N1c2ccccc2C=Cc2ccccc21 [CBZ, Carbamazepine]",inhibitory effect on the MPTP-induced reduction in the contents of dopamine and DOPAC in the striatum,C57 black male mice [1]; [3],did not show any significant inhibitory effect
same,inhibitory effect on the MPTP-induced reduction in the contents of dopamine and DOPAC in the striatum,C57 black male mice [1]; [4],did not show any significant inhibitory effect
same,Inhibitory Rate (%) DA,C57 black male mice [1]; 20 mg/kg po for 8 days,25.0%
same,DA (ng/g tissue),C57 black male mice [1]; 20 mg/kg po for 8 days,3087 ± 453 ng/g tissue
same,DOPAC (ng/g tissue),C57 black male mice [1]; 20 mg/kg po for 8 days,251 ± 36 ng/g tissue
same,Inhibitory Rate (%) DA,C57 black male mice [1]; 60 mg/kg po for 8 days,20.8%
same,Inhibitory Rate (%) DOPAC,C57 black male mice [1]; 60 mg/kg po for 8 days,23.0%
same,DA (ng/g tissue),C57 black male mice [1]; 60 mg/kg po for 8 days,2894 ± 750 ng/g tissue
same,DOPAC (ng/g tissue),C57 black male mice [1]; 60 mg/kg po for 8 days,202 ± 52 ng/g tissue
same,inhibitory effect on dopamine depletion induced by MPTP,C57 black mice,does not show such effect
"CN1C(=O)CN=C(c2ccccc2)c2cc(Cl)ccc21 [DZP, Diazepam]",Inhibitory Rate (%) DA,C57 black male mice [1]; 5 mg/kg po for 8 days,24.3%
same,Inhibitory Rate (%) DOPAC,C57 black male mice [1]; 5 mg/kg po for 8 days,18.3%
same,DA (ng/g tissue),C57 black male mice [1]; 5 mg/kg po for 8 days,3356 ± 451 ng/g tissue
same,DOPAC (ng/g tissue),C57 black male mice [1]; 5 mg/kg po for 8 days,208 ± 28 ng/g tissue
"CCC1(C)CC(=O)NC1=O (centres unmarked) [ESM, Ethosuximide]",Inhibitory Rate (%) DA,C57 black male mice [1]; 600 mg/kg po for 8 days,−18.7%
same,Inhibitory Rate (%) DOPAC,C57 black male mice [1]; 600 mg/kg po for 8 days,−12.9%
same,DA (ng/g tissue),C57 black male mice [1]; 600 mg/kg po for 8 days,1008 ± 182 ng/g tissue
same,DOPAC (ng/g tissue),C57 black male mice [1]; 600 mg/kg po for 8 days,80 ± 10 ng/g tissue
"Nc1nnc(-c2cccc(Cl)c2Cl)c(N)n1 [LTG, 3,5-diamino-6-(2,3-dichlorophenyl)-1,2,4-triazine]",Inhibitory Rate (%) DA,C57 black male mice [1]; 30 mg/kg po for 8 days,51.6%
same,Inhibitory Rate (%) DOPAC,C57 black male mice [1]; 30 mg/kg po for 8 days,34.1%
same,DA (ng/g tissue),C57 black male mice [1]; 30 mg/kg po for 8 days,4844 ± 676** ng/g tissue
same,DOPAC (ng/g tissue),C57 black male mice [1]; 30 mg/kg po for 8 days,273 ± 31** ng/g tissue
same,inhibitory effect on dopamine depletion induced by MPTP,C57 black mice,show an inhibitory effect
"CN1CC=C(c2ccccc2)CC1 [MPTP, 1-methyl-4-phenyl-1,2,3,6-tetrahydropyridine]","contents of dopamine (DA), homovanillic acid (HVA) and DOPAC in the striatum",C57 black male mice [2]; [5],significantly reduced
same,"contents of noradrenaline (NA), serotonin (5HT), MOPEG and 5HIAA in the striatum",C57 black male mice [2]; [5],never affected
same,reduction in the contents of dopamine and metabolites thereof in the striatum,C57 black male mice [2]; 14 days after last administration (FIG. 2),irreversible
"CCC1(c2ccccc2)C(=O)NC(=O)NC1=O [PB, Phenobarbital]",Inhibitory Rate (%) DA,C57 black male mice [1]; 40 mg/kg po for 8 days,23.5%
same,Inhibitory Rate (%) DOPAC,C57 black male mice [1]; 40 mg/kg po for 8 days,16.3%
same,DA (ng/g tissue),C57 black male mice [1]; 40 mg/kg po for 8 days,3310 ± 544 ng/g tissue
same,DOPAC (ng/g tissue),C57 black male mice [1]; 40 mg/kg po for 8 days,200 ± 32 ng/g tissue
"O=C1NC(=O)C(c2ccccc2)(c2ccccc2)N1 [PHT, Phenytoin]",Inhibitory Rate (%) DA,C57 black male mice [1]; 30 mg/kg po for 8 days,37.4%
same,Inhibitory Rate (%) DOPAC,C57 black male mice [1]; 30 mg/kg po for 8 days,30.2%
same,DA (ng/g tissue),C57 black male mice [1]; 30 mg/kg po for 8 days,4073 ± 454* ng/g tissue
same,DOPAC (ng/g tissue),C57 black male mice [1]; 30 mg/kg po for 8 days,257 ± 30* ng/g tissue
same,inhibitory effect on dopamine depletion induced by MPTP,C57 black mice,show an inhibitory effect
"CCCC(CCC)C(=O)[O-].[Na+] [VPA, Sodium valproate]",Inhibitory Rate (%) DA,C57 black male mice [1]; 800 mg/kg po for 8 days,17.5%
same,Inhibitory Rate (%) DOPAC,C57 black male mice [1]; 800 mg/kg po for 8 days,13.2%
same,DA (ng/g tissue),C57 black male mice [1]; 800 mg/kg po for 8 days,2984 ± 468 ng/g tissue
same,DOPAC (ng/g tissue),C57 black male mice [1]; 800 mg/kg po for 8 days,187 ± 29 ng/g tissue
"NS(=O)(=O)Cc1noc2ccccc12 [ZNS, 3-sulfamoylmethyl-1,2-benzisoxazole]",inhibitory effect on the MPTP-induced reduction in the contents of dopamine and DOPAC in the striatum,C57 black male mice [1]; [3],dose-dependent inhibitory effect
same,inhibitory effect on the MPTP-induced reduction in the contents of dopamine and DOPAC in the striatum,C57 black male mice [1]; [4],dose-dependent inhibitory effect
same,Inhibitory Rate (%) DA,C57 black male mice [1]; 10 mg/kg po for 8 days,22.3%
same,Inhibitory Rate (%) DOPAC,C57 black male mice [1]; 10 mg/kg po for 8 days,29.8%
same,DA (ng/g tissue),C57 black male mice [1]; 10 mg/kg po for 8 days,3797 ± 201* ng/g tissue
same,DOPAC (ng/g tissue),C57 black male mice [1]; 10 mg/kg po for 8 days,221 ± 11* ng/g tissue
same,Inhibitory Rate (%) DA,C57 black male mice [1]; 30 mg/kg po for 8 days,80.3%
same,Inhibitory Rate (%) DOPAC,C57 black male mice [1]; 30 mg/kg po for 8 days,82.1%
same,DA (ng/g tissue),C57 black male mice [1]; 30 mg/kg po for 8 days,7373 ± 685** ng/g tissue
same,DOPAC (ng/g tissue),C57 black male mice [1]; 30 mg/kg po for 8 days,370 ± 27** ng/g tissue
same,Inhibitory Rate (%) DA,C57 black male mice [1]; [6],97.2%
same,Inhibitory Rate (%) DOPAC,C57 black male mice [1]; [6],109.1%
same,Inhibitory Rate (%) DA,C57 black male mice [1]; [7],~100%
same,Inhibitory Rate (%) DOPAC,C57 black male mice [1]; [7],~100%
same,DA (ng/g tissue),C57 black male mice [1]; 100 mg/kg po for 8 days,8434 ± 336** ng/g tissue
same,DOPAC (ng/g tissue),C57 black male mice [1]; 100 mg/kg po for 8 days,447 ± 24** ng/g tissue
